Laboratory results as given in publication PMC11596972, “Synthesis and Antimicrobial Activity of 3-Alkylidene-2-Indolone Derivatives” (Molecules, 2024).
In brackets after ≈: the same amount, converted by molar mass. Like-named read-outs stand apart in the source and are kept apart here.

What was measured:
S. aureus ATCC 6538 = assay: MIC, double dilution method, S. aureus ATCC 6538; type: cell-based; conditions: Staphylococcus aureus, ATCC6538, 24 h
P. aeruginosa CMCC 10211 = assay: MIC, double dilution method, P. aeruginosa CMCC 10211; type: cell-based; conditions: Pseudomonas aeruginosa
C. albicans CMCC 98001 = assay: MIC, double dilution method, C. albicans CMCC 98001; type: cell-based, Candida albicans; conditions: for MIC: C. albicans CMCC 98001, fungus, 24 h culture
S. aureus 4220 = assay: MIC, double dilution method, S. aureus 4220; type: cell-based; conditions: Staphylococcus aureus, 4220, 24 h
E. coli 1924 = assay: MIC, double dilution method, E. coli 1924; type: cell-based, Escherichia coli
E. coli ATCC 25922 = assay: MIC, double dilution method, E. coli ATCC 25922; type: cell-based; conditions: Escherichia coli
MRSA ATCC 43300 = assay: MIC, double dilution method, MRSA ATCC 43300; type: cell-based, Methicillin-resistant Staphylococcus aureus; conditions: MRSA ATCC 43300, Gram-positive, 24 h culture
[1] = tested on: Candida albicans CMCC 98001; assay: Minimum fungicidal concentration, C. albicans CMCC 98001; type: cell-based
Description: (§1) Moreover, minimum bactericidal concentration (MBC (μg/mL)) or minimum fungicidal concentration (MFC (μg/mL)) assays were performed for the promising compounds 10d, 10f, 10g and 10h against Staphylococcus aureus ATCC 6538, Staphylococcus aureus 4220, Staphylococcus aureus ATCC 43300 and Candida albicans CMCC 98001, and shown in Table 2.
(§2) The minimum bactericidal concentration (MBC) or minimum fungicidal concentration (MFC) was determined as described, following the MIC assay, by subculturing 5 μL of the compounds from wells showing no visible growth onto fresh agar plates. The plates were incubated at 37 °C for 24 h.

[2] = tested on: Staphylococcus aureus ATCC 6538; assay: Minimum bactericidal concentration, S. aureus ATCC 6538; type: cell-based; conditions: ATCC6538, 99.9% reduction of inoculum
Description: as §1, §2

[3] = Cytotoxicity, MTT assay, L-02; type: cell-based; conditions: human, L-02 cells (normal liver cell line), 48 h incubation
Description: (§3) The cytotoxicity of the most bioactive compounds 10f, 10g and 10h were evaluated in vitro against the HepG2 cell line (human hepatocellular carcinoma cell line) and the L-02 cell line (normal liver cell line) by 3-(4,5-dimethylthiazol-2-yl)-2,5-diphenyltetrazolium bromide (MTT) assay. The obtained results were presented by the inhibitory concentration that reduces the viability of the cell population to 50% of the maximal viability (IC50).
(§4) HepG2 cells and L-02 cells (ATCC, Manassas, VA, USA) were plated in 96-well plates at a density of 30–40% to ensure exponential growth throughout the experimental period, and then allowed to adhere for 1 day. Next, the cells were treated with eight concentrations (100, 50, 25, 10, 5, 1, 0.1, and 0.01 μmol/L) of each compound. After 48 h of incubation, MTT solution was added to each well at a final concentration of 2 mg/mL and incubated for an additional 4 h. Next, the MTT solution was removed and […] of dimethyl sulphoxide (DMSO)/well was added (Sigma-Aldrich, St. Louis, MO, USA). The plates were shaken vigorously at RT to ensure complete solubilization, and absorption at 492 nm was determined by a microplate reader (BioTek Instruments, Inc., Winooski, VT, USA). At least three independent experiments were conducted.

[4] = Cytotoxicity, MTT assay, HepG2; type: cell-based; conditions: human, HepG2 cells, 48 h incubation
Description: as §3, §4

[5] = tested on: Staphylococcus aureus 4220; assay: Minimum bactericidal concentration, S. aureus 4220; type: cell-based; conditions: 99.9% reduction of inoculum
Description: as §1, §2

Staphylococcus aureus = tested on: Staphylococcus aureus; set-up: method as in PMID 28946655; conditions: cited from earlier work
[6] = tested on: three Gram-positive bacteria strains and two Gram-negative bacteria strains; set-up: method as in PMID 29968851; conditions: cited from earlier work
[7] = tested on: four bacteria and three fungi; set-up: method as in doi:10.1007/s11164-013-1403-x; conditions: cited from earlier work
E. coli ATCC 25,922 = tested on: E. coli ATCC 25,922; set-up: method as in PMID 33839249; conditions: cited from earlier work
[8] = tested on: Gram-positive and Gram-negative bacterial strains; set-up: method as in PMID 27318539; conditions: most of the tested Gram-positive and Gram-negative bacterial strains; cited from earlier work
[9] = S. aureus ATCC 6538, Gram-positive, 24 h culture, read-out: MIC
[10] = CMCC10211, P. aeruginosa CMCC 10211, Gram-negative, 24 h culture, read-out: MIC
[11] = Candida albicans, CMCC98001, 24 h, read-out: MIC
[12] = S. aureus 4220, Gram-positive, 24 h culture, read-out: MIC
[13] = Escherichia coli, E. coli 1924, Gram-negative, 24 h culture, read-out: MIC
[14] = ATCC25922, E. coli ATCC 25922, Gram-negative, 24 h culture, read-out: MIC
[15] = Staphylococcus aureus, 24 h, read-out: MIC
[16] = Candida albicans, CMCC98001, 24 h

| Compound | MIC (S. aureus ATCC 6538) | MIC (P. aeruginosa CMCC 10211; CMCC10211, 24 h) | MIC (C. albicans CMCC 98001; [16]) | MIC (S. aureus 4220) | MIC (E. coli 1924; Escherichia coli, 1924, 24 h) | MIC (E. coli ATCC 25922; ATCC25922, 24 h) | MIC (MRSA ATCC 43300; Staphylococcus aureus, 24 h) | further results |
| --- | --- | --- | --- | --- | --- | --- | --- | --- |
| C/C(O)=C1/C(=O)N(C)c2ccccc21 [Compound 5a, (Z)-3-(1-hydroxyethylidene)-1-methylindolin-2-one] |  |  |  |  |  |  |  | melting point: 95 to 97 °C; MIC (S. aureus ATCC 6538; [9]): > 64 µg/mL; MIC (P. aeruginosa CMCC 10211; [10]): 64 µg/mL (≈ 338 µM); MIC (C. albicans CMCC 98001; [11]): 32 µg/mL (≈ 169 µM); MIC (S. aureus 4220; [12]): 64 µg/mL (≈ 338 µM); MIC (E. coli 1924; [13]): 64 µg/mL (≈ 338 µM); MIC (E. coli ATCC 25922; [14]): > 64 µg/mL; MIC (MRSA ATCC 43300; [15]): > 64 µg/mL |
| CN1C(=O)/C(=C(\O)c2cccs2)c2ccccc21 [Compound 10a, (Z)-3-(hydroxy(thiophen-2-yl)methylene)-1-methylindolin-2-one] |  |  |  |  |  |  |  | melting point: 141 to 143 °C; MIC (S. aureus ATCC 6538; [9]): 64 µg/mL (≈ 249 µM); MIC (P. aeruginosa CMCC 10211; [10]): 64 µg/mL (≈ 249 µM); MIC (C. albicans CMCC 98001; [11]): 64 µg/mL (≈ 249 µM); MIC (S. aureus 4220; [12]): > 64 µg/mL; MIC (E. coli 1924; [13]): 32 µg/mL (≈ 124 µM); MIC (E. coli ATCC 25922; [14]): > 64 µg/mL; MIC (MRSA ATCC 43300; [15]): 64 µg/mL (≈ 249 µM) |
| CN1C(=O)/C(=C(\O)c2ccccc2)c2ccccc21 [Compound 10b, (Z)-3-(hydroxy(phenyl)methylene)-1-methylindolin-2-one] | 8 µg/mL (≈ 31.8 µM) | > 64 µg/mL | > 64 µg/mL | 32 µg/mL (≈ 127 µM) | 8 µg/mL (≈ 31.8 µM) | 64 µg/mL (≈ 255 µM) | 32 µg/mL (≈ 127 µM) |  |
| Cc1ccc(/C(O)=C2/C(=O)N(C)c3ccccc32)cc1 [Compound 10c, (Z)-3-(hydroxy(p-tolyl)methylene)-1-methylindolin-2-one] | 2 µg/mL (≈ 7.54 µM) | > 64 µg/mL | 64 µg/mL (≈ 241 µM) | 8 µg/mL (≈ 30.2 µM) | 8 µg/mL (≈ 30.2 µM) | 64 µg/mL (≈ 241 µM) |  | MIC (MRSA ATCC 43300): 16 µg/mL (≈ 60.3 µM); MIC (MRSA ATCC 43300; listed as 10v): 0.5 to 16 µg/mL |
| CN1C(=O)/C(=C(\O)c2ccc(F)cc2)c2ccccc21 [Compound 10d, (Z)-3-((4-fluorophenyl)(hydroxy)methylene)-1-methylindolin-2-one] | 4 µg/mL (≈ 14.9 µM) | > 64 µg/mL | 8 to 16 µg/mL (≈ 29.7 to 59.4 µM) | 16 µg/mL (≈ 59.4 µM) | 8 µg/mL (≈ 29.7 µM) | 64 µg/mL (≈ 238 µM) | 32 µg/mL (≈ 119 µM) | antifungal activity (class in words) (C. albicans CMCC 98001; C. albicans CMCC 98001): moderate antifungal activity; MIC (C. albicans CMCC 98001): 8 µg/mL (≈ 29.7 µM); MFC/MIC [1]: 2; MFC ([1]; CMCC98001, 99.9% reduction of inoculum): 16 µg/mL (≈ 59.4 µM) |
| CN1C(=O)/C(=C(\O)c2ccc(Cl)cc2)c2ccccc21 [Compound 10e, (Z)-3-((4-chlorophenyl)(hydroxy)methylene)-1-methylindolin-2-one] | 2 µg/mL (≈ 7 µM) | > 64 µg/mL | 64 µg/mL (≈ 224 µM) | 8 µg/mL (≈ 28 µM) | 8 µg/mL (≈ 28 µM) | 64 µg/mL (≈ 224 µM) | 16 µg/mL (≈ 56 µM) |  |
| Cc1cccc2c1N(C)C(=O)/C2=C(\O)c1ccc(Cl)cc1 [Compound 10f, (Z)-3-((4-chlorophenyl)(hydroxy)methylene)-1,7-dimethylindolin-2-one] | 0.5 µg/mL (≈ 1.67 µM) | > 64 µg/mL | > 64 µg/mL | 4 µg/mL (≈ 13.3 µM) | 8 µg/mL (≈ 26.7 µM) | > 64 µg/mL | 2 µg/mL (≈ 6.67 µM) | MBC [2]: 32 µg/mL (≈ 107 µM); IC50 at 48 h [3]: > 100 µM; IC50 at 48 h [4]: > 100 µM |
| CN1C(=O)/C(=C(\O)c2ccc(Cl)cc2)c2cccc(Br)c21 [Compound 10g, (Z)-7-bromo-3-((4-chlorophenyl)(hydroxy)methylene)-1-methylindolin-2-one] | 2 µg/mL (≈ 5.49 µM) | > 64 µg/mL | > 64 µg/mL | 0.5 µg/mL (≈ 1.37 µM) | 1 µg/mL (≈ 2.74 µM) | 64 µg/mL (≈ 176 µM) | 0.5 µg/mL (≈ 1.37 µM) | IC50 at 48 h [3]: > 100 µM; MBC [5]: 32 µg/mL (≈ 87.8 µM); IC50 at 48 h [4]: > 100 µM |
| CN1C(=O)/C(=C(\O)c2ccc(Br)cc2)c2ccccc21 [Compound 10i, (Z)-3-((4-bromophenyl)(hydroxy)methylene)-1-methylindolin-2-one] | 2 µg/mL (≈ 6.06 µM) | > 64 µg/mL | > 64 µg/mL | 16 µg/mL (≈ 48.5 µM) | 8 µg/mL (≈ 24.2 µM) | > 64 µg/mL | 16 µg/mL (≈ 48.5 µM) |  |
| O=C1NC(c2c[nH]c3ccc(O)cc23)=C/C1=C1\C(=O)Nc2ccccc21 [Compound VI, violacein] |  |  |  |  |  |  |  | MIC (Staphylococcus aureus): 6.25 µM (≈ 2.15 µg/mL) |
| Cn1c([N+](=O)[O-])cnc1/C=C1/C(=O)Nc2ccc([N+](=O)[O-])cc21 [Compound XI] |  |  |  |  |  |  |  | MIC [6]: 0.0625 to 4 µg/mL |
| O=C1Nc2ccccc2/C1=C\C(=O)c1cc(Cl)c(Cl)cc1O [Compound X] |  |  |  |  |  |  |  | MIC [7]: 12 to 18 µg/mL |
| OC(Cn1cncn1)(Cn1cncn1)c1ccc(F)cc1F [Flu, Fluconazole, reference compound] |  |  |  |  |  |  |  | MIC (S. aureus ATCC 6538; [9]): > 64 µg/mL; MIC (P. aeruginosa CMCC 10211; [10]): > 64 µg/mL; MIC (C. albicans CMCC 98001; [11]): 2 µg/mL (≈ 6.53 µM); MIC (S. aureus 4220; [12]): > 64 µg/mL; MIC (E. coli 1924; [13]): > 64 µg/mL; MIC (E. coli ATCC 25922; [14]): > 64 µg/mL; MIC (MRSA ATCC 43300; [15]): > 64 µg/mL |
| COc1c(N2CCNC(C)C2)c(F)cc2c(=O)c(C(=O)O)cn(C3CC3)c12 (centres unmarked) [Gati, Gatifloxacin, reference compound] |  |  |  |  |  |  |  | MIC (S. aureus ATCC 6538; [9]): 0.5 µg/mL (≈ 1.33 µM); MIC (P. aeruginosa CMCC 10211; [10]): 0.5 µg/mL (≈ 1.33 µM); MIC (C. albicans CMCC 98001; [11]): > 64 µg/mL; MIC (S. aureus 4220; [12]): 0.5 µg/mL (≈ 1.33 µM); MIC (E. coli 1924; [13]): 0.5 µg/mL (≈ 1.33 µM); MIC (E. coli ATCC 25922; [14]): 0.5 µg/mL (≈ 1.33 µM); MIC (MRSA ATCC 43300; [15]): 0.5 µg/mL (≈ 1.33 µM) |
| CCC(=O)/C=C1/C(=O)N(CCn2cncn2)c2ccccc21 [IX] |  |  |  |  |  |  |  | MIC (E. coli ATCC 25,922): 1 µg/mL (≈ 3.37 µM) |
| CN(C)c1cccc2cc(S(=O)(=O)N3CCN(c4ccc(/C=C5\C(=O)Nc6ccccc65)cc4)CC3)ccc12 [VII] |  |  |  |  |  |  |  | MIC [8]: 12.5 to 50 µg/mL |
